Legend:
Format in all cases: ADME
Set-up in all cases: dose 2 uM
Details in all cases: 2 µM
Acylhydrolase = molecular target: T1, Acylhydrolase (Bacteroides thetaiotaomicron, UniProt Q8AA96); assay: (§1) The drug is tested on Bacteroides thetaiotaomicron strain: VPI-5482 for biotransformation. The drug concentrations were measured before and after a 12-h incubation by liquid-chromatography-coupled mass spectrometry (LC–MS)
T1 sequence (Q8AA96 whole entry): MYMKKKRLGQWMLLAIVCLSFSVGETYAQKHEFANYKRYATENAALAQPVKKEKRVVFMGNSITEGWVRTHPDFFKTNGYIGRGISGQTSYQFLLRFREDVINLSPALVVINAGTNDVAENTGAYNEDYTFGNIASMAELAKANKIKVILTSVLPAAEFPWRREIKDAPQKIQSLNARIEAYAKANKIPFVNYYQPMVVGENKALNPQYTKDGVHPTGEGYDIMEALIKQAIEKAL

[1] = molecular target: T2, 3-oxo-5-alpha-steroid 4-dehydrogenase (Bacteroides thetaiotaomicron, UniProt Q8A618); assay: as §1
T2 sequence (Q8A618 whole entry): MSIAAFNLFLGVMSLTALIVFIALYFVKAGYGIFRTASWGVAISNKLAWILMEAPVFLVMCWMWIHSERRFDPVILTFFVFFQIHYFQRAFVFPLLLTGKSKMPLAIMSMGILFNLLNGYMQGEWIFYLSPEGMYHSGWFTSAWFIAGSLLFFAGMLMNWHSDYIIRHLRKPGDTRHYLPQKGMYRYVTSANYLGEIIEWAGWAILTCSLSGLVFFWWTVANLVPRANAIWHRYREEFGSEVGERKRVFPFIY

[2] = molecular target: T3, Sialic acid-specific 9-O-acetylesterase (Bacteroides thetaiotaomicron, UniProt Q8A0D0); assay: as §1
T3 sequence (Q8A0D0 whole entry): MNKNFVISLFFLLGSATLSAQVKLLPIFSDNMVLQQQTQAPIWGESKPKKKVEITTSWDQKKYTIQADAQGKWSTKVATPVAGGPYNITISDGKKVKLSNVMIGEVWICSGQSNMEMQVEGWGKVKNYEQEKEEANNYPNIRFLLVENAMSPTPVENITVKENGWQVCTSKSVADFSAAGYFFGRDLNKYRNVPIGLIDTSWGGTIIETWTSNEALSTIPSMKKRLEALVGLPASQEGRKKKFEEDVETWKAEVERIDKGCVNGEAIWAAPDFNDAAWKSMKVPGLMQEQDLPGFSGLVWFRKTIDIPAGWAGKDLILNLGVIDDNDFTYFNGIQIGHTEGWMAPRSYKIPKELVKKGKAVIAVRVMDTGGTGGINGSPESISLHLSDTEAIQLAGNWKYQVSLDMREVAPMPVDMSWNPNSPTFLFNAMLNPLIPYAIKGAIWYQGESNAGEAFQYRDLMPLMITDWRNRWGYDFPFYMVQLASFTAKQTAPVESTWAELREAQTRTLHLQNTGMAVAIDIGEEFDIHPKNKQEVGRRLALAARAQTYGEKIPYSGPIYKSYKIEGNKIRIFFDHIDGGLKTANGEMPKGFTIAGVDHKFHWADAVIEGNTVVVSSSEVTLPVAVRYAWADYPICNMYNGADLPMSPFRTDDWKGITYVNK

[3] = molecular target: T4, Sialic acid-specific acetylesterase (Bacteroides thetaiotaomicron, UniProt Q8A331); assay: as §1
T4 sequence (Q8A331 whole entry): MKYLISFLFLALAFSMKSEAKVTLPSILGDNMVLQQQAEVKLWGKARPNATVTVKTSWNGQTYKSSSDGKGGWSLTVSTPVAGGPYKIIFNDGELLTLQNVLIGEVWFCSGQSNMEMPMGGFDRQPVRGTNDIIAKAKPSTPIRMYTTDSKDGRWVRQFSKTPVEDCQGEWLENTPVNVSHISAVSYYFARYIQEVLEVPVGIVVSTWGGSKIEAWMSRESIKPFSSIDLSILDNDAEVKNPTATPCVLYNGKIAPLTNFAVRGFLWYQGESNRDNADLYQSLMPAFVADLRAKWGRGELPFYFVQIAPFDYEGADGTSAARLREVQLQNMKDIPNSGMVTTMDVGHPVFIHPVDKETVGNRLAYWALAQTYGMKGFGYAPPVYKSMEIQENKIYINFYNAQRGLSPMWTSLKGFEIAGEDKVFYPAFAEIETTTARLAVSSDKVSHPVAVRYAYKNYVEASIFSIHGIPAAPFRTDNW

Endoglucanase E (EGE) = molecular target: T5, Endoglucanase E (EGE) (Bacteroides thetaiotaomicron, UniProt Q8AAL9); assay: as §1
T5 sequence (Q8AAL9 whole entry): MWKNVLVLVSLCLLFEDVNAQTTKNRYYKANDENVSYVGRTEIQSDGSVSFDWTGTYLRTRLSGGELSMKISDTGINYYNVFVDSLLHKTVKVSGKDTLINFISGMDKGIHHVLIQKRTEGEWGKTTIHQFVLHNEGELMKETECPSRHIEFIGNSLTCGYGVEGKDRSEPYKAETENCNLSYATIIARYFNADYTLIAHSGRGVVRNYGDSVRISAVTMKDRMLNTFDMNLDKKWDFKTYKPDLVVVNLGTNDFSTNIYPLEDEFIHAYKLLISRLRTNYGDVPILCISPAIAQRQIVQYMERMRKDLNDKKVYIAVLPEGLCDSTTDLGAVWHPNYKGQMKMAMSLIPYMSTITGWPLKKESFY

Nitroreductase = molecular target: T6, Nitroreductase (Bacteroides thetaiotaomicron, UniProt Q8A911); assay: as §1
T6 sequence (Q8A911 whole entry): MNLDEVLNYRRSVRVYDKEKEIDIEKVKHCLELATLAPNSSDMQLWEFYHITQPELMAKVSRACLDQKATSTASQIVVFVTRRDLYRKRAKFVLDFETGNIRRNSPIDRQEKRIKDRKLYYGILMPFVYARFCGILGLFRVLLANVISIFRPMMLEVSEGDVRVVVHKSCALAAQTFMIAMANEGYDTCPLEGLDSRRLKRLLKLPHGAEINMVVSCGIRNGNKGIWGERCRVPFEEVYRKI

[4] = molecular target: T7, NADH dehydrogenase/NAD(P)H nitroreductase (Bacteroides thetaiotaomicron, UniProt Q8A8L9); assay: as §1
T7 sequence (Q8A8L9 whole entry): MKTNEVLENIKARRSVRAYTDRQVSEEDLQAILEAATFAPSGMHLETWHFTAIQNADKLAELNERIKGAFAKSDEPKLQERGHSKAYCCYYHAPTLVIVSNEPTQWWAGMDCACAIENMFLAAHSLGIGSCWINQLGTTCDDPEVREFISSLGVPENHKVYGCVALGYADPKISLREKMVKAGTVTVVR

Bacterial Biotransformation (Acylhydrolase): Compound NOT metabolized | Bacterial Biotransformation [1]: Compound NOT metabolized | Bacterial Biotransformation [2]: Compound NOT metabolized | Bacterial Biotransformation [3]: Compound NOT metabolized | Bacterial Biotransformation (Endoglucanase E (EGE)): Compound NOT metabolized | Bacterial Biotransformation (Nitroreductase): Compound NOT metabolized | Bacterial Biotransformation [4]: Compound NOT metabolized
SMILES: C[C@]12CCC(=O)C=C1[C@@H]1C[C@@H]1[C@H]1[C@@H]3[C@@H]4C[C@@H]4[C@@]4(CCC(=O)O4)[C@@]3(C)CC[C@@H]12 [DROSPIRENONE]
